Measured values published in US20150225369A1, “DDR2 INHIBITORS FOR THE TREATMENT OF OSTEOARTHRITIS” (Merck Patent GmbH, priority 2012, published 2015).

Experiments:
[1] = biological target: T1, HEK293 transfected with human DDR2 (Homo sapiens, UniProt Q16832); assay: Phospho-DDR2 cellular assay (collagen II induced DDR2 phosphorylation, ELISA); format: cell-based; details: cellular phospho-DDR2; read-out: IC50 [p-DDR2]
T1 construct: expressed in transfected cells; host or cells: HEK293 (PLT460F_(DDR2)-P7-1)
T1 sequence (Q16832 22-855): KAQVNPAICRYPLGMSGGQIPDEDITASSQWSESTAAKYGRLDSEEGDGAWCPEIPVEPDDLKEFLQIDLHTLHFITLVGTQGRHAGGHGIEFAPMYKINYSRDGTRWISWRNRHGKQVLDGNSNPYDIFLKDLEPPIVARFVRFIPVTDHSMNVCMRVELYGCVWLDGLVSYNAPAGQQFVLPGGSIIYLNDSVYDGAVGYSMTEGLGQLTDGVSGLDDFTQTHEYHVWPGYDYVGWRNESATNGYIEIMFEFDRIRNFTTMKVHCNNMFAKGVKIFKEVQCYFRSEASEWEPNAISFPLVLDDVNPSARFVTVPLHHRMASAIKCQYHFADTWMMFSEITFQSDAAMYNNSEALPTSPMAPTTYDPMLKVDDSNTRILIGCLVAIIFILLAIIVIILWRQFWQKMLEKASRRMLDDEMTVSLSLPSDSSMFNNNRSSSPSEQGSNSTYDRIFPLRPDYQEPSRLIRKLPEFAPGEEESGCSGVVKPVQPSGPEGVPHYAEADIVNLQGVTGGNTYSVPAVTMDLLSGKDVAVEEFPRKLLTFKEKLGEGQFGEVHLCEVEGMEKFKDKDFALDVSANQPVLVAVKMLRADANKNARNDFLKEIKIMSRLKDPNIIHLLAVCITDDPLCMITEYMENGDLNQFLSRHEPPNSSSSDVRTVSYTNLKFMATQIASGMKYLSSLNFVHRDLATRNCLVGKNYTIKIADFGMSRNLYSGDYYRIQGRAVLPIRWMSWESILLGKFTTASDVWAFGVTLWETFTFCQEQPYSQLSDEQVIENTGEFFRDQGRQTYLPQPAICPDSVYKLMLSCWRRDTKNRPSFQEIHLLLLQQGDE
Procedure, shortened: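 Cells seeded 48 h in 10% FBS, serum-starved 8 h, then given compound (5% DMSO) with 50 μg/ml chicken collagen II for 16 h at 37 °C. Lysates captured on anti-DDR2 antibody plates; phospho-DDR2 detected with HRP anti-phosphotyrosine antibody by chemiluminescence.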

[2] = biological target: T2, His-tagged human recombinant DDR-2 kinase domain (His-TEV-DDR2 467-855 aa) (Homo sapiens, UniProt Q16832); assay: Autophosphorylation assay for biochemical activity testing of DDR2 (HTRF); details: biochemical DDR2 autophosphorylation
T2 construct: His-TEV-DDR2 467-855 aa
T2 sequence (Q16832 467-855): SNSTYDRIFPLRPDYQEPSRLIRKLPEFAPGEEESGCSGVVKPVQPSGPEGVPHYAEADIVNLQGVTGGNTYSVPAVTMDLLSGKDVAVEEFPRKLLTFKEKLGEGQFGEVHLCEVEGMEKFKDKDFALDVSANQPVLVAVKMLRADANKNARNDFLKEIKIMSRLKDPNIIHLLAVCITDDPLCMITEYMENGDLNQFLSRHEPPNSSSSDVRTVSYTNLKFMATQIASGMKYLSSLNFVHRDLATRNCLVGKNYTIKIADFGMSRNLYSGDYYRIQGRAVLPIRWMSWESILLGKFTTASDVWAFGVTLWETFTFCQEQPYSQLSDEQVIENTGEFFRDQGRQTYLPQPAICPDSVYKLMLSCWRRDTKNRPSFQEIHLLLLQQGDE
Procedure, shortened: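 Phospho-tyrosine was detected by HTRF between XL665 anti-6His and cryptate anti-phosphotyrosine PT66 antibodies, using the emission ratio. Inhibition was referenced to the inhibitor-free reaction.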

| SMILES | IC50 [1] | IC50 [2] |
| --- | --- | --- |
| CNC(=O)c1cc(Oc2ccc(CNC(=O)Nc3cc(Cl)c(C)cc3OC3CCNCC3)cc2)ccn1 [compound 178, 4-(4-{3-[5-Chloro-4-methyl-2-(piperidin-4-yloxy)-phenyl]-ureidomethyl}-phenoxy)-pyridine-2-carboxylic acid methylamide] | 25 nM | 35 nM |
| CNC(=O)c1cc(Oc2ccc(CNC(=O)Nc3cc(Cl)c(C)cc3OCCN3CCNCC3)cc2)ccn1 [compound 179, 4-(4-{3-[5-Chloro-4-methyl-2-(2-piperazin-1-yl-ethoxy)-phenyl]-ureidomethyl}-phenoxy)-pyridine-2-carboxylic acid methylamide] | 38 nM | 160 nM |
| CNC(=O)c1cc(Oc2ccc(CNC(=O)Nc3cc(Cl)c(C)cc3OCC3CCCN3)cc2)ccn1 (centres unmarked) [compound 182, 4-(4-{3-[5-Chloro-4-methyl-2-(pyrrolidin-2-ylmethoxy)-phenyl]-ureidomethyl}-phenoxy)-pyridine-2-carboxylic acid methylamide] | 30 nM | 59 nM |
| CNCCOc1ccc(S(=O)(=O)C(F)(F)F)cc1NC(=O)NCc1ccc(Oc2ccnc(C(=O)NC)c2)c(C)c1 [compound 189, 4-(2-Methyl-4-{3-[2-(2-methylamino-ethoxy)-5-trifluoromethanesulfonyl-phenyl]-ureidomethyl}-phenoxy)-pyridine-2-carboxylic acid methylamide] | 115 nM | 270 nM |
| CNC(=O)c1cc(Oc2ccc(CNC(=O)Nc3ccc(C)cn3)cc2C)ccn1 [compound 211, 4-{2-Methyl-4-[3-(5-methyl-pyridin-2-yl)-ureidomethyl]-phenoxy}-pyridine-2-carboxylic acid methylamide] | 630 nM | 780 nM |
| CNC(=O)c1cc(Oc2ccc(CNC(=O)Nc3cc(C)ccn3)cc2C)ccn1 [compound 213, 4-{2-Methyl-4-[3-(4-methyl-pyridin-2-yl)-ureidomethyl]-phenoxy}-pyridine-2-carboxylic acid methylamide] | 205 nM | 400 nM |
| CNCCOc1ccc(C)cc1NC(=O)NCc1ccc(Oc2ccnc(C(=O)NC)c2)c(C)c1 [compound 215, 4-(2-Methyl-4-{3-[5-methyl-2-(2-methylamino-ethoxy)-phenyl]-ureidomethyl}-phenoxy)-pyridine-2-carboxylic acid methylamide] | 40 nM | 69 nM |
| CNC(=O)c1cc(Oc2ccc(CNC(=O)Nc3cc(Cl)ccc3OC)cc2F)ccn1 [compound 232, 4-{4-[3-(5-Chloro-2-methoxy-phenyl)-ureidomethyl]-2-fluoro-phenoxy}-pyridine-2-carboxylic acid methylamide] | 19 nM | 52 nM |

More lines, now with the values ahead:

| IC50 [1] | IC50 [2] | SMILES |
| --- | --- | --- |
| 35 nM | 89 nM | CNC(=O)c1cc(Oc2ccc(CNC(=O)Nc3cc(Cl)c(C)cc3OCCNC(C)C)cc2)ccn1 [compound 183, 4-(4-{3-[5-Chloro-2-(2-isopropylamino-ethoxy)-4-methyl-phenyl]-ureidomethyl}-phenoxy)-pyridine-2-carboxylic acid methylamide] |
| 175 nM | 460 nM | CNC(=O)c1cc(Oc2ccc(CNC(=O)Nc3cc(Cl)c(C)cc3OCC(C)(C)N)cc2)ccn1 [compound 185, 4-(4-{3-[2-(2-Amino-2-methyl-propoxy)-5-chloro-4-methyl-phenyl]-ureidomethyl}-phenoxy)-pyridine-2-carboxylic acid methylamide] |
| 40 nM | 120 nM | CNC(=O)c1cc(Oc2ccc(CNC(=O)Nc3cc(C(F)(F)F)ccc3OCC(N)=O)cc2)ccn1 [compound 190, 4-{4-[3-(2-Carbamoylmethoxy-5-trifluoromethyl-phenyl)-ureidomethyl]-phenoxy}-pyridine-2-carboxylic acid methylamide] |
| 106 nM | 590 nM | CNC(=O)c1cc(Oc2ccc(CNC(=O)Nc3cc(C(F)(F)F)c(Cl)cc3OCCCN)cc2)ccn1 [compound 191, 4-(4-{3-[2-(3-Amino-propoxy)-4-chloro-5-trifluoromethyl-phenyl]-ureidomethyl}-phenoxy)-pyridine-2-carboxylic acid methylamide] |
| 1500 nM | 2000 nM | CNC(=O)c1cc(Oc2ccc(CNC(=O)Nc3ccc(C)cn3)cc2)ccn1 [compound 210, 4-{4-[3-(5-Methyl-pyridin-2-yl)-ureidomethyl]-phenoxy}-pyridine-2-carboxylic acid methylamide] |
| 380 nM | 570 nM | CNC(=O)c1cc(Oc2ccc(CNC(=O)Nc3cc(C)ccn3)cc2)ccn1 [compound 212, 4-{4-[3-(4-Methyl-pyridin-2-yl)-ureidomethyl]-phenoxy}-pyridine-2-carboxylic acid methylamide] |
| 11000 nM | 19000 nM | CNC(=O)c1cc(Oc2ccc(CNC(=O)Nc3cccnc3Cl)cc2)ccn1 [compound 226, 4-{4-[3-(2-Chloro-pyridin-3-yl)-ureidomethyl]-phenoxy}-pyridine-2-carboxylic acid methylamide] |
| 6300 nM | 5500 nM | CNC(=O)c1cc(Oc2ccc(CNC(=O)Nc3ccc(OC)nc3)cc2)ccn1 [compound 227, 4-{4-[3-(6-Methoxy-pyridin-3-yl)-ureidomethyl]-phenoxy}-pyridine-2-carboxylic acid methylamide] |
